Assay results: PubChem BioAssay (NCI)
Several values for one entry are separate records, joined by “and”; a condition that tells them apart may be missing. Identical values can stand only once.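 Five concentrations, 48 hours, 96-well plates. Abbreviation: GI50, concentration required for 50% inhibition of growth. TGI is the concentration that stops growth completely.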

Experiments:
Experiment in all cases: NCI anticancer screen, dose series, 48 h
[1] = test system: 786-0 renal
[2] = test system: A498 renal
[3] = test system: A549 NSCLC
[4] = test system: ACHN renal
[5] = test system: BT-549 breast
[6] = test system: CAKI-1 renal
[7] = test system: CCRF-CEM leukemia
[8] = test system: COLO 205 colon
[9] = test system: DU-145 prostate
[10] = test system: EKVX NSCLC
[11] = test system: HCC-2998 colon
[12] = test system: HCT-116 colon
[13] = test system: HCT-15 colon
[14] = test system: HL-60(TB) leukemia
[15] = test system: HOP-62 NSCLC
[16] = test system: HOP-92 NSCLC
[17] = test system: HS 578T breast
[18] = test system: HT29 colon
[19] = test system: IGROV1 ovarian
[20] = test system: K-562 leukemia
[21] = test system: KM12 colon
[22] = test system: LOX IMVI melanoma
[23] = test system: M14 melanoma
[24] = test system: MALME-3M melanoma
[25] = test system: MCF7 breast
[26] = test system: MDA-MB-231 breast
[27] = test system: MDA-MB-435
[28] = test system: MOLT-4 leukemia
[29] = test system: NCI-H226 lung
[30] = test system: NCI-H23 lung
[31] = test system: NCI-H460 lung
[32] = test system: NCI-H522 lung
[33] = test system: NCI/ADR-RES ovarian
[34] = test system: OVCAR-3 ovarian
[35] = test system: OVCAR-4 ovarian
[36] = test system: OVCAR-5 ovarian
[37] = test system: OVCAR-8 ovarian
[38] = test system: PC-3 prostate
[39] = test system: RPMI-8226 leukemia
[40] = test system: RXF 393 renal
[41] = test system: SF-268 CNS
[42] = test system: SF-295 CNS
[43] = test system: SF-539 CNS
[44] = test system: SK-MEL-2 melanoma
[45] = test system: SK-MEL-28 melanoma
[46] = test system: SK-MEL-5 melanoma
[47] = test system: SK-OV-3 ovarian
[48] = test system: SN12C renal
[49] = test system: SNB-19 CNS
[50] = test system: SNB-75 CNS
[51] = test system: SR leukemia
[52] = test system: SW-620 colon
[53] = test system: T-47D breast
[54] = test system: TK-10 renal
[55] = test system: UACC-257 melanoma
[56] = test system: UACC-62 melanoma
[57] = test system: UO-31 renal

For CN1C(=O)[C@]23SSC1(C)C(=O)N2[C@H]1Nc2ccccc2C1([C@@]12c4ccccc4N[C@@H]1N1C(=O)C4(C)SS[C@]1(C(=O)N4C)[C@H]2O)[C@@H]3O (stereo partly specified), the GI50 [1] was 44.8 nM and 185 nM, the TGI [1] was 108 nM and 363 nM and the GI50 [2] was 384 nM and 2330 nM. The TGI [2] was 678 nM and 3810 nM, the TGI [3] was 1100 nM and 6850 nM and the GI50 [4] was 37.1 nM and 57.7 nM. For the same compound, the TGI [4] was 100 nM and 508 nM, the GI50 [5] was 218 nM and 1490 nM and the TGI [5] was 486 nM and 2970 nM. For the same compound, the GI50 [6] was 48.8 nM and 154 nM, the TGI [6] was 170 nM and 396 nM and the GI50 [7] was 73.9 nM and 203 nM. The TGI [7] was 1560 nM and 2210 nM, the GI50 [8] was 28.3 nM and 153 nM and the TGI [8] was 61.3 nM and 395 nM. The GI50 [9] was 46.1 nM and 299 nM, the TGI [9] was 208 nM and 1440 nM and the GI50 [10] was 64.4 nM and 606 nM. For the same compound, the TGI [10] was 504 nM and 3690 nM, the GI50 [11] was 79.1 nM and 567 nM and the TGI [11] was 297 nM and 1940 nM. The GI50 [12] was 55.8 nM and 97.4 nM, the TGI [12] was 229 nM and 556 nM and the GI50 [13] was 21.7 nM and 143 nM. For the same compound, the GI50 [14] was 235 nM and 254 nM, the TGI [14] was 782 nM and 1530 nM and the GI50 [15] was 219 nM and 1400 nM. For the same compound, the TGI [15] was 576 nM and 3300 nM, the GI50 [16] was 307 nM and 302 nM and the TGI [16] was 640 nM and 674 nM. For the same compound, the GI50 [17] was 465 nM and 1580 nM, the TGI [17] was 1730 nM and 5400 nM and the GI50 [18] was 27.6 nM and 187 nM. For the same compound, the TGI [18] was 86.5 nM and 454 nM, the GI50 [19] was 238 nM and 290 nM and the TGI [19] was 570 nM and 864 nM. The GI50 [20] was 39.7 nM and 84.7 nM, the TGI [20] was 2880 nM and 10500 nM and the GI50 [21] was 140 nM and 1210 nM. The TGI [21] was 478 nM and 3410 nM, the GI50 [22] was 30.9 nM and 165 nM and the TGI [22] was 70.8 nM and 394 nM. The GI50 [23] was 48.2 nM and 175 nM, the TGI [23] was 163 nM and 451 nM and the GI50 [24] was 22.7 nM and 50.5 nM. The TGI [24] was 53.9 nM and 184 nM, the GI50 [25] was 10.7 nM and 45.7 nM and the TGI [25] was 223 nM and 1220 nM. The GI50 [26] was 54.9 nM and 321 nM, the TGI [26] was 184 nM and 827 nM and the GI50 [27] was 96.7 nM and 265 nM. The TGI [27] was 413 nM and 804 nM, the GI50 [28] was 65.3 nM and 214 nM and the TGI [28] was 590 nM and 1370 nM. The GI50 [29] was 290 nM, the TGI [29] was 807 nM and the GI50 [30] was 37.4 nM. The TGI [30] was 101 nM, the GI50 [31] was 129 nM and 326 nM and the TGI [31] was 1490 nM and 1140 nM. The GI50 [32] was 28.8 nM and 179 nM, the TGI [32] was 61.9 nM and 395 nM and the GI50 [33] was 121 nM and 549 nM. The TGI [33] was 588 nM and 3740 nM, the GI50 [34] was 20.2 nM and 183 nM and the TGI [34] was 57.1 nM and 426 nM. For the same compound, the GI50 [35] was 30.2 nM and 164 nM, the TGI [35] was 73.1 nM and 322 nM and the GI50 [36] was 360 nM and 1440 nM. The TGI [36] was 756 nM and 4210 nM, the GI50 [37] was 34.8 nM and 165 nM and the TGI [37] was 75.1 nM and 359 nM. For the same compound, the GI50 [38] was 185 nM and 662 nM, the TGI [38] was 720 nM and 3010 nM and the GI50 [39] was 53.6 nM and 257 nM. For the same compound, the TGI [39] was 221 nM and 882 nM, the GI50 [40] was 33 nM and 170 nM and the TGI [40] was 65.7 nM and 318 nM. The GI50 [41] was 309 nM and 1960 nM, the TGI [41] was 1260 nM and 5580 nM and the GI50 [42] was 275 nM and 2380 nM. For the same compound, the TGI [42] was 555 nM and 4690 nM, the GI50 [43] was 68.7 nM and 277 nM and the TGI [43] was 264 nM and 762 nM. The GI50 [44] was 265 nM and 718 nM, the TGI [44] was 540 nM and 2160 nM and the GI50 [45] was 33.9 nM and 187 nM. The TGI [45] was 76.6 nM and 419 nM, the TGI [46] was 242 nM and 2010 nM and the GI50 [47] was 293 nM and 1670 nM. For the same compound, the TGI [47] was 751 nM and 4050 nM, the GI50 [48] was 107 nM and 407 nM and the TGI [48] was 1170 nM and 1910 nM. For the same compound, the GI50 [49] was 455 nM and 1330 nM, the TGI [49] was 1580 nM and 4340 nM and the GI50 [50] was 209 nM and 1960 nM. The TGI [50] was 544 nM and 3500 nM, the GI50 [51] was 46.5 nM and 210 nM and the TGI [51] was 417 nM and 1070 nM. The GI50 [52] was 66.7 nM and 144 nM, the TGI [52] was 434 nM and 660 nM and the GI50 [53] was 22 nM and 184 nM. The TGI [53] was 89.9 nM and 595 nM, the GI50 [54] was 54.5 nM and 503 nM and the TGI [54] was 128 nM and 906 nM. The GI50 [55] was 34.8 nM and 208 nM, the TGI [55] was 94.3 nM and 488 nM and the GI50 [56] was 137 nM and 420 nM. The TGI [56] was 398 nM and 1820 nM, the GI50 [57] was 45.2 nM and 192 nM and the TGI [57] was 122 nM and 367 nM.
